Measured values reported in US8541670B2, “Compositions and methods for inhibiting tumor cell growth” (priority 2007, dated 2013).
Where no end group is shown, it is not given here.

Assays:
AKT = experiment: Western blot of AKT substrate phosphorylation in N2a cells; assay type: cell-based; conditions: different doses
Experimental: (§1) AKT affects a network that positively regulates G1/S cell cycle progression through several mechanisms that involve the expression and subcellular localization of the CDK inhibitor p27^Kip1 (Blain and Massague (2002) Nat. Med. 8:1076-1078; Liang, et al. (2002) supra; Shin, et al. (2002) supra; Viglietto, et al. (2002) supra). Based on these studies, the effect of ZaTa peptide on cell proliferation was assessed. […] Capturing live images of cultured N2a cells in the presence of different concentrations of the ZaTa peptide confirmed an obvious reduction in the number of dividing cells.
N2a cells were cultured in Dulbecco's Modified Eagle's Medium (DMEM) and OPTI-MEM® media (50% of each; GIBCO-BRL, Gaithersberg, Md.) supplemented with 5% fetal bovine serum (FBS; SIGMA, St. Louis, Mo.), penicillin-streptomycin and L-Glutamine (GIBCO-BRL). […] Protein concentration was measured using a commercially available protein assay (BIO-RAD, […].) protein assay and spectrometry at 595 Å. […] The membrane was probed with primary and secondary antibodies and signals were detected by chemiluminescence followed by autoradiography.

N2a cells = experiment: MTT cell proliferation assay; assay type: cell-based
Experimental: In histogram series 2, treatments were removed after 24 hours and cells were incubated for another 24 hours without treatment. […] Mitochondrial activity (reflecting cellular growth and viability) in the presence of ZaTa and ZaTa variants (ZaTa T10D, ZaTa T8D, ZaTa T14R, and ZaTa Y17T) was evaluated by measuring the optical density (“OD”) at 490 nm on a plate reader. ZaTa T10D refers to a ZaTa polypeptide variant in which the Threonine (T) at position 10 of SEQ ID NO: 60 is substituted by an Aspartic Acid (D). ZaTa T8D refers to a ZaTa polypeptide variant in which the Threonine (T) at position 8 of SEQ ID NO: 60 is substituted by an Aspartic Acid (D). ZaTa T14R refers to a ZaTa polypeptide variant in which the Threonine (T) at position 14 of SEQ ID NO: 60 is substituted by an Arginine (R). ZaTa Y17T refers to a ZaTa polypeptide variant in which the Tyrosine (Y) at position 17 of SEQ ID NO: 60 is substituted by an Threonine (T).
as §1
Based on the importance of the C-terminal arm of ZaTa for its inhibitory action on AKT, it was determined whether the free hydroxyl groups on residues Thr-8, Thr-10 (equivalent to Thr-197 in full-length PKAc), Thr-14 and Tyr-17 were important for the biological activity of this peptide. Mutants of ZaTa peptide were synthesized by replacing Thr-8 or Thr-10 residues with Asp (ZaTa^T8D and ZaTa^T10D, respectively) as an amino acid with a negatively charged side chain. Mutants of ZaTa with the hydrophilic positively charged amino acid Arg at either position Thr-14 or Tyr-17 (ZaTa^T14R and ZaTa^Y17R, respectively) were also synthesized. […] The inhibitory effect of ZaTa peptide on cell proliferation was reversible, to a large extent, after the removal of ZaTa treatment (FIG. 3, histogram series 2).
Cells (5×10^3) were incubated in 96-well plates in the presence of different concentrations of the ZaTa peptide, control peptide or DMSO as vehicle. Media was removed at different time intervals and replaced with media containing MTT (5 mg/mL), and incubated for one hour at 37° C. […] The activity of the mitochondria, reflecting cellular growth and viability, was evaluated by measuring the optical density at 490 nm on a plate reader.

[1] = tested on: panel of 32 kinases (AKT2, AKT3, PKA, PKC, PI3K, SGK, PAK2, PAK3, SAPK2/p38, Abl, CaMKII, CDK1/cyclinB, CDK5/p35, CK1, CK2, CSK, GSK3, JNK1, MAPK1, p70S6K …); experiment: In vitro kinase selectivity panel of 32 kinases; assay type: biochemical; conditions: at IC50 for AKT1 (0.1 μM)
Experimental: As a specific substrate, the phosphorylation level of GSK-3[…] at Ser-9 was also evaluated. […] The decrease was specific to the AKT phosphorylation site on GSK-3[…] at Ser-9, since a change in the phosphorylation level of GSK-3[…] at Tyr-216 or GSK-3[…] at Tyr-279 was not observed. Moreover, the in vivo reduction of the phosphorylation of AKT substrates was more obvious at the injection site, since a significant change in the phosphorylation of AKT substrates in the frontal cortex or cerebellum between the two hemispheres was not observed. […] To test the specificity/selectivity of ZaTa as the inhibitor of AKT1 versus the other major kinases, a series of in vitro kinase assays was performed at IC50 for AKT1 and at ten times higher concentrations. A panel of the following 32 kinases was first tested in vitro using the active form of each kinase and a specific substrate: AKT2, AKT3, PKA, PKC[…], PKC, PI3K[…], PI3K[…], PI3K, SGK, PAK2, PAK3, SAPK2/p38, Abl, CaMKII, CDK1/cyclinB, CDK5/p35, CK1, CK2, CSK, GSK3[…], GSK3[…], JNK1[…]1, MAPK1, p70S6K, PDGFR[…], PDGFR[…], PDK1, PKG1[…], TrkB, JAK2, JAK3, and Syk. […] However, at ten times higher concentration, ZaTa inhibited AKT2 (63%), PI3K[…] (72%), p70S6K (64%), SGK (73%), PAK3 (83%), JAK3 (79%), TrkB (84%), and Abl (42%). […]

Sequence: AKRVKGRTWTLCGTPEY [ZaTa]
- phosphorylation level of AKT substrates in N2a cells (AKT): concomitant decrease
- dose causing significant decrease in the number of live cells (as low as) (N2a cells): 2 µM
- number of live cells 24 hours after removal of treatment versus DMSO vehicle (N2a cells; 10 μM, 24 hours treatment then 24 hours without): no significant differences
- number of live cells, MTT (N2a cells; different concentrations): dose-dependent decrease in the number of live cells
- inhibition of panel kinases [1]: no significant inhibition
